Measurements as given in US20130109734A1 (Metabolex, Inc., priority 2010, published 2013).

Biological target: T1, human GPR120 (Homo sapiens, UniProt Q5NUL3)
T1 construct: host or cells: HEK293 cells co-expressing Gqi5
T1 sequence (Q5NUL3 1-361): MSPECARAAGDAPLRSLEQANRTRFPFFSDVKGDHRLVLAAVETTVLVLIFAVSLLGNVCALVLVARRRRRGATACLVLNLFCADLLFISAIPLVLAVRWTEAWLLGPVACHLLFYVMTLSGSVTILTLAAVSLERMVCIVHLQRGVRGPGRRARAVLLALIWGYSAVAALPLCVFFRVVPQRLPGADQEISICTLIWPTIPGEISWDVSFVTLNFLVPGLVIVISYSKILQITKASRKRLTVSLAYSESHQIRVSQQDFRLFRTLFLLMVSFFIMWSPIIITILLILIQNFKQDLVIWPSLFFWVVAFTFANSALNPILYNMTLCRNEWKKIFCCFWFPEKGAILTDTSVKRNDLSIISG
Assay: Intracellular Ca2+ assay in human GPR120 stable cell line (HEK293 co-expressing Gqi5), Flexstation
Assay type: cell-based
Details: % activity at 5 μM compared to the maximal activity of GW9508 at 6.7 μM (=100%); human GPR120 cells, Ca2+ fluorescence
Outline: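 HEK293 cells stably co-expressing Gqi5 and Flag-tagged human GPR120, loaded with Calcium 4 dye in HBSS/HEPES pH 7.4 at 37 °C; compounds at eight concentrations, 0.00001–20 μM, fluorescence (485/525 nm) read 90 s. EC50 from Max−Min change; percent activity relative to GW9508 maximum at 6.7 μM.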

SMILES | % Activity (GW9508 Reference Compound) [%]
Cc1cc(OCC(=O)O)ccc1OCc1cc(Cl)cc2c1OC(C)(C)C2 [Example 103, 2-(4-((5-chloro-2,2-dimethyl-2,3-dihydrobenzofuran-7-yl)methoxy)-3-methylphenoxy)acetic acid] | 98.96
CC(CC(=O)O)c1cc(F)c(OCc2cc(Cl)cc3c2OC(C)(C)C3)c(F)c1 (stereo not drawn) [Example 106, 3-(4-((5-chloro-2,2-dimethyl-2,3-dihydrobenzofuran-7-yl)methoxy)-3,5-difluorophenyl)butanoic acid] | 154.51
COc1cc(COc2ccc(CC(C)C(=O)O)cc2)c2c(c1)CC(C)(C)O2 (stereo not drawn) [Example 108, 3-(4-((5-methoxy-2,2-dimethyl-2,3-dihydrobenzofuran-7-yl)methoxy)phenyl)-2-methylpropanoic acid] | 143.85
CC(Cc1cc(F)c(OCc2cc(Cl)cc3c2OC(C)C3(C)C)c(F)c1)C(=O)O (stereo not drawn) [Example 109, 3-(4-((5-chloro-2,3,3-trimethyl-2,3-dihydrobenzofuran-7-yl)methoxy)-3,5-difluorophenyl)-2-methylpropanoic acid] | 72.36
CC(Cc1cc(F)c(OCc2cc(OCc3ccccc3)cc3c2OC(C)(C)C3)c(F)c1)C(=O)O (stereo not drawn) [Example 111, 3-(4-((5-(benzyloxy)-2,2-dimethyl-2,3-dihydrobenzofuran-7-yl)methoxy)-3,5-difluorophenyl)-2-methylpropanoic acid] | 51.55
CC1(C)Cc2cc(Cl)cc(COc3ccc4c(c3)CC(C(=O)O)C4)c2O1 (stereo not drawn) [Example 112, 5-((5-chloro-2,2-dimethyl-2,3-dihydrobenzofuran-7-yl)methoxy)-2,3-dihydro-1H-indene-2-carboxylic acid] | 115.42
CC1(C)Cc2cc(F)cc(COc3ccc4cc(C(=O)O)ccc4c3)c2O1 [Example 114, 6-((5-fluoro-2,2-dimethyl-2,3-dihydrobenzofuran-7-yl)methoxy)-2-naphthoic acid] | 123.58
CC(C)Oc1cc(OCc2cc(F)cc3c2OC(C)(C)C3)ccc1CCC(=O)O [Example 115, 3-(4-((5-fluoro-2,2-dimethyl-2,3-dihydrobenzofuran-7-yl)methoxy)-2-isopropoxyphenyl)propanoic acid] | 151.78
CC(C)Oc1cc(OCc2cc(Cl)cc3c2OC(C)(C)C3)ccc1CCC(=O)O [Example 116, 3-(4-((5-chloro-2,2-dimethyl-2,3-dihydrobenzofuran-7-yl)methoxy)-2-isopropoxyphenyl)propanoic acid] | 145.6
Cc1cc2cc(Cl)cc(COc3ccc(CC(C)C(=O)O)cc3F)c2o1 (stereo not drawn) [Example 120, 3-(4-((5-chloro-2-methylbenzofuran-7-yl)methoxy)-3-fluorophenyl)-2-methylpropanoic acid] | 104.49
CN(C)Cc1cc(OCc2cc(F)cc3c2OC(C)(C)C3)ccc1CCC(=O)O [Example 122, 3-(2-((dimethylamino)methyl)-4-((5-fluoro-2,2-dimethyl-2,3-dihydrobenzofuran-7-yl)methoxy)phenyl)propanoic acid] | 3.58
CC(=O)Nc1cc(COc2ccc(CC(C)C(=O)O)cc2)c2c(c1)CC(C)(C)O2 (stereo not drawn) [Example 123, 3-(4-((5-acetamido-2,2-dimethyl-2,3-dihydrobenzofuran-7-yl)methoxy)phenyl)-2-methylpropanoic acid] | 47.01
CC(Cc1ccc(OCc2cc(OC(F)(F)F)cc3c2OC(C)(C)C3)cc1)C(=O)O (stereo not drawn) [Example 124, 3-(4-((2,2-dimethyl-5-(trifluoromethoxy)-2,3-dihydrobenzofuran-7-yl)methoxy)phenyl)-2-methylpropanoic acid] | 131.64
Cc1cc2c(OCc3cc(F)cc4c3OC(C)(C)C4)ccc(CCC(=O)O)c2o1 [Example 125, 3-(4-((5-fluoro-2,2-dimethyl-2,3-dihydrobenzofuran-7-yl)methoxy)-2-methylbenzofuran-7-yl)propanoic acid] | 32.57
CC(=O)NCCOC(=O)C(C)Cc1ccc(OCc2cc(Cl)cc3c2OC(C)(C)C3)c(C(F)(F)F)c1 (stereo not drawn) [Example 126, 2-acetamidoethyl 3-(4-((5-chloro-2,2-dimethyl-2,3-dihydrobenzofuran-7-yl)methoxy)-3-(trifluoromethyl)phenyl)-2-methylpropanoate] | 47.02
CC1(C)Cc2cc(Cl)cc(CNc3ccc(CCC(=O)O)cc3)c2O1 [Example 127, 3-(4-(((5-chloro-2,2-dimethyl-2,3-dihydrobenzofuran-7-yl)methyl)amino)phenyl)propanoic acid] | 152.93
CC(Cc1ccc(OCc2cc(Cl)cc3c2OC(C)(C)C3O)cc1)C(=O)O (stereo not drawn) [Example 130, 3-(4-((5-chloro-3-hydroxy-2,2-dimethyl-2,3-dihydrobenzofuran-7-yl)methoxy)phenyl)-2-methylpropanoic acid] | 103.85
CC1(C)Cc2cc(F)cc(COc3ccc(CC(=O)O)cc3)c2O1 [Example 133, 2-(4-((5-fluoro-2,2-dimethyl-2,3-dihydrobenzofuran-7-yl)methoxy)phenyl)acetic acid] | 103.4
CCc1cc(OCc2cc(F)cc3c2OC(C)(C)C3)ccc1CCC(=O)O [Example 134, 3-(2-ethyl-4-((5-fluoro-2,2-dimethyl-2,3-dihydrobenzofuran-7-yl)methoxy)phenyl)propanoic acid] | 151.44
CC1(C)Cc2cc(F)cc(COc3ccc(CCC(=O)O)c(OC(F)(F)F)c3)c2O1 [Example 136, 3-(4-((5-fluoro-2,2-dimethyl-2,3-dihydrobenzofuran-7-yl)methoxy)-2-(trifluoromethoxy)phenyl)propanoic acid] | 140.51
CCc1cc(OCc2cccc3c2CC(C)(C)O3)ccc1CCC(=O)O [Example 140, 3-(4-((2,2-dimethyl-2,3-dihydrobenzofuran-4-yl)methoxy)-2-ethylphenyl)propanoic acid] | 146.18
C[C@H](Cc1ccc(OCc2cc(Cl)cc3c2OC(C)(C)C3)c(F)c1)C(=O)O [Example 141, (R)-3-(4-((5-chloro-2,2-dimethyl-2,3-dihydrobenzofuran-7-yl)methoxy)-3-fluorophenyl)-2-methylpropanoic acid] | 143.3
C[C@H](Cc1ccc(OCc2cc(Cl)cc3c2OC(C)(C)C3)c(C(F)(F)F)c1)C(=O)O [Example 143, (R)-3-(4-((5-chloro-2,2-dimethyl-2,3-dihydrobenzofuran-7-yl)methoxy)-3-(trifluoromethyl)phenyl)-2-methylpropanoic acid] | 90.56
[2H]C1([2H])c2cc(F)cc(COc3ccc(CC(C)C(=O)O)cc3)c2OC1(C)C (stereo not drawn) [Example 145, 3-(4-((3,3-dideuterio-5-fluoro-2,2-dimethyl-2,3-dihydrobenzofuran-7-yl)methoxy)phenyl)-2-methylpropanoic acid] | 143.69
[2H]C1([2H])c2cc(Cl)cc(COc3ccc(CC(C)C(=O)O)cc3F)c2OC1(C)C (stereo not drawn) [Example 146, 3-(4-((3,3-dideuterio-5-chloro-2,2-dimethyl-2,3-dihydrobenzofuran-7-yl)methoxy)-3-fluorophenyl)-2-methylpropanoic acid] | 140.72
[2H]C1([2H])c2cc(Cl)cc(COc3ccc(CC(C)C(=O)O)cc3C(F)(F)F)c2OC1(C)C (stereo not drawn) [Example 147, 3-(4-((3,3-dideuterio-5-chloro-2,2-dimethyl-2,3-dihydrobenzofuran-7-yl)methoxy)-3-(trifluoromethyl)phenyl)-2-methylpropanoic acid] | 138.65
CC(Cc1ccc(OCc2cc(Cl)cc3c2OCC3(C)C)cc1)C(=O)O (stereo not drawn) [Example 148, 3-(4-((5-chloro-3,3-dimethyl-2,3-dihydrobenzofuran-7-yl)methoxy)phenyl)-2-methylpropanoic acid] | 113.89
Cc1cc2cccc(COc3c(F)cc(CC(C)C(=O)O)cc3F)c2s1 (stereo not drawn) [Example 151, 3-(3,5-difluoro-4-((2-methylbenzo[b]thiophen-7-yl)methoxy)phenyl)-2-methylpropanoic acid] | 117.38
Cc1cc2cccc(COc3ccc4c(c3)CCC4CC(=O)O)c2s1 (stereo not drawn) [Example 152, 2-(5-((2-methylbenzo[b]thiophen-7-yl)methoxy)-2,3-dihydro-1H-inden-1-yl)acetic acid] | 83.81
CC1(C)Cc2cc(F)cc(COc3ccc4c(c3)CCCC4CC(=O)O)c2O1 (stereo not drawn) [Example 153, 2-(6-((5-fluoro-2,2-dimethyl-2,3-dihydrobenzofuran-7-yl)methoxy)-1,2,3,4-tetrahydronaphthalen-1-yl)acetic acid] | 106.81
